The values below come from patent US11465998B2, “Therapeutic compounds and methods of use thereof” (Regents of the University of Minnesota, priority 2019, dated 2022).

Molecules are shown by their SMILES. “Also recorded” adds a separate entry of the source. Read-outs that look alike come from different tables or passages of the source.

The subject of test [1] is THP-1 NF-κB reporter cells. Put plainly: NF-κB translocation in THP-1 NF-κB reporter cells, alone or with TLR stimuli. The class given is cell-based, human. The note with it: for enhancement of NF-κB translocation response to TLR2 stimuli: concurrent exposure to compound and TLR2 agonist; for enhancement of NF-κB translocation response to TLR2 stimuli / enhancement of NF-κB translocation response to TLR4 stimuli / enhancement of NF-κB translocation response to TLR5 stimuli: data not shown; for enhancement of NF-κB translocation response to TLR4 stimuli: concurrent exposure to compound and TLR4 agonist; for enhancement of NF-κB translocation response to TLR5 stimuli: concurrent exposure to compound and TLR5 agonist; for enhancement of NF-κB translocation response to TLR7 stimuli: concurrent exposure to graded concentrations of compound and TLR7 agonist; for enhancement of NF-κB translocation response to TLR8 stimuli: concurrent exposure to graded concentrations of compound and TLR8 agonist. An excerpt: Given that Rip2 activity is proximal to several of the components that constitute the multiprotein signaling complexes involved in innate immune signaling, and Rip2 participates in signaling through some, but not all, TLRs, it was of particular interest to examine if the benzimidazole-thiophene-2-carboxamide formula I compounds could synergize with other innate immune stimuli. […] THP-1 NF-κB reporter cells were concurrently exposed to graded concentrations of either 7e or 7f, and a variety of innate immune stimuli, including TLR-2, -3, -4, -5, -7, -8, and -9 agonists. An enhancement in NF-κB translocation was observed.

The subject of test [2] is human peripheral blood mononuclear cells (PBMCs). Put plainly: Multiplexed immunoassays for human cytokines in PBMCs. The class given is cell-based. The protocol: (§1) Example 5: High-throughput screens in porcine blood: Curated compound collections were obtained from the Institute for Therapeutics Discovery & Development at the University of Minnesota. Compound transfers from source (80 nL of 10 mM stocks) to assay plates were performed using an Echo 550 acoustic liquid handler (Labcyte, Sunnyvale, Calif.). For most libraries, a target final concentration of 10 μM of compound (in a final volume of 80 μL for the assay described below) was achieved. Compound plates were hermetically sealed and stored at −80° C. until used. Fresh, heparin-anticoagulated porcine blood from healthy animals were obtained under USDA supervision from Midwest Research Swine, LLC (Glencoe, Minn.). 80 μL of hematocrit-enriched porcine blood (low-speed centrifugation, followed by resuspension in DMEM supplemented with 10% fetal bovine serum) was added to compound plates and incubated for 15 h. The following day, the plates were briefly centrifuged (100 g, 10 min), and supernatants were transferred using an automated ViaFlow 384 transfer device (Integra Biosciences Corp., Hudson, N.H.) to assay plates containing of 10^6 cells/mL of each of the following NF-κB/secreted alkaline phosphatase reporter cells suspended in HEK-Blue Detection Media: human IFN-α/β, human IFN-γ, human TNF-α/IL-1β (InvivoGen, San Diego, Calif.). NF-κB translocation was assayed spectrophotometrically using an alkaline phosphatase-specific chromogen (present in HEK-detection medium as supplied by InvivoGen) at 620 nm using a SpectraMax M4 multimode microplate reader (Molecular Devices, Sunnyvale, Calif.). Z′ factors were computed for each TLR/NOD-specific signals. Hits were defined as signals >4σ (in-plate standard deviations for test compounds above negative control means), were deconvoluted in full dose-response assays in human TLR-2/-3/-4/-5/-7/-8/-9 and NOD-1/NOD-2-specific reporter cells in liquid handler-assisted assay formats as described previously. Example 6: Murine knockout cell-lines: The following reagents were obtained through BEI Resources, NIAID, NIH: the microglial cell line derived from MAL/MyD88 double knockout Mice (NR-9904), and the macrophage cell line derived from TRIF/TRAM knockout mice (NR-9568). Example 7: Human NOD1/2-specific reporter gene assays (NF-κB induction), and TLR-2/-3/-4/-5/-7/-8/-9/STING/ISG counter-screens: The induction of NF-κB was quantified using human TLR-2/-3/-4/-5/-7/-8/-9/NOD-1/NOD-2/STING/ISG-specific, rapid-throughput, liquid handler-assisted reporter gene assays as previously described by us (Wu, W. et al. J. Med. Chem. 2010, 53, 3198-3213; Shukla, N. M. et al. J. Med. Chem. 2010, 53, 4450-4465; Agnihotri, G. et al. J. Med. Chem. 2011, 54, 1490-1510 and Ukani, R. et al. Bioorg. Med. Chem. Lett. 2012, 22, 293-295). […]

In another test the test system is human whole blood. Put plainly: Cytokine/chemokine induction in human whole blood. The class given is cell-based.
A further test has as its target T1, human NOD2 (Homo sapiens, UniProt Q9HC29).
T1 construct: host or cells: HEK293
Put plainly: human NOD2 specific reporter gene assay (NF-κB induction). The class given is cell-based. The protocol:
as §1, with “293-295). HEK293 cells stably co-transfected with the appropriate hTLR and secreted alkaline phosphatase (sAP) were maintained in HEK-Blue™ Selection medium. Stable expression of secreted alkaline phosphatase (sAP) under control of NF-κB/AP-1/IRF promoters is inducible by appropriate innate immune stimuli, and extracellular sAP in the supernatant is proportional to NF-κB/IRF induction. Reporter cells were incubated at a density of ˜10^5 cells/ml in a volume of 80 μl/well, in 384-well, flat-bottomed, cell culture-treated microtiter plates in the presence of graded concentrations of stimuli. sAP was assayed spectrophotometrically using an alkaline phosphatase-specific chromogen (present in HEK-detection medium as supplied by InvivoGen) at 620 nm. Example 8: Multiplexed immunoassays for human cytokines: Fresh human peripheral blood mononuclear cells (hPBMC) were isolated from human blood obtained by venipuncture in Cell Preparation Tubes (CPT, Beckton-Dickinson) with informed consent and as per guidelines approved by the University of Minnesota Human Subjects Experimentation Committee. Aliquots of PBMCs or THP-1 cells (10^5 cells in 100 μL/well) were stimulated for 16 h with graded concentrations of test compounds.” for “293-295).”

The mark [3] stands for this setting: human NOD2 reporter gene assay, read-out: EC50 values, human NOD2 agonistic potency.
[4] abbreviates: human NOD2 specific reporter gene assay, arithmetic mean of quadruplicate samples, NA* indicates inactive under the tested conditions, read-out: hNOD2 Agonistic Activity (μM), EC50.

T1 sequence (Q9HC29 whole entry): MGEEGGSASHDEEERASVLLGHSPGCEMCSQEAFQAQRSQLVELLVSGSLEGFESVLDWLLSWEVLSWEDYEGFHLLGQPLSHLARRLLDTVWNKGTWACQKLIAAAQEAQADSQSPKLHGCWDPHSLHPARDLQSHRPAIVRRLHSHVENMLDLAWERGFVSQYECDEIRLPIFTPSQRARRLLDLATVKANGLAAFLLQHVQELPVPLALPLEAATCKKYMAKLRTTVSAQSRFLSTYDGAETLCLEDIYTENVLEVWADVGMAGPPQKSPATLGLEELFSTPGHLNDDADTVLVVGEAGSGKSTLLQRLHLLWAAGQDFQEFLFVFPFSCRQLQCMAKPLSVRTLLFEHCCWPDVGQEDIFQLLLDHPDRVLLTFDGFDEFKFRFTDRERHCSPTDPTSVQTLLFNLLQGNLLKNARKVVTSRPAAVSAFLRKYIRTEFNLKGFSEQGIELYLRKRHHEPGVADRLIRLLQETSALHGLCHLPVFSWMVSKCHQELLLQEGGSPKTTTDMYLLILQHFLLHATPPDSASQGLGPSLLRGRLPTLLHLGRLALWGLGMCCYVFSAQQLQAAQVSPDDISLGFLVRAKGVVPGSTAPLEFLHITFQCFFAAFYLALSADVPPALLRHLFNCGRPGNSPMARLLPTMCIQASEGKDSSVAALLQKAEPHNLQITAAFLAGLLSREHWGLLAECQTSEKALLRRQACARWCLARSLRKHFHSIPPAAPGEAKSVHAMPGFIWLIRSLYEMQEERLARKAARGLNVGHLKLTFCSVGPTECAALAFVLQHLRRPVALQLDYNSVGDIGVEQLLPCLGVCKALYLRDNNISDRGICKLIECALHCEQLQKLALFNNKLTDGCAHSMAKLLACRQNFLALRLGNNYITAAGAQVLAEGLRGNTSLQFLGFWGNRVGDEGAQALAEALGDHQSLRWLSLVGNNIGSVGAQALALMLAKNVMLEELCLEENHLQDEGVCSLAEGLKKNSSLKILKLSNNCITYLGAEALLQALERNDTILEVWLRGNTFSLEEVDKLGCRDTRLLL

With `CCCCCc1nc2ccccc2n1-c1csc(C(N)=O)c1` [Compound 7e, 4-(2-Pentyl-1H-benzo[d]imidazol-1-yl)thiophene-2-carboxamide], in test [1], the “enhancement of NF-κB translocation response to TLR2 stimuli” value is recorded as “absent”, the “enhancement of NF-κB translocation response to TLR4 stimuli” value is “absent”, the “enhancement of NF-κB translocation response to TLR5 stimuli” value was “evident” and the “enhancement of NF-κB translocation response to TLR7 stimuli” value is recorded as “particularly pronounced; also recorded: enhancement of NF-κB translocation responses”. Moreover, the “enhancement of NF-κB translocation response to TLR8 stimuli” value in test [1] is “particularly pronounced; also recorded: enhancement of NF-κB translocation responses; also recorded: distinctly biphasic”. Further, the “induction of chemokines and cytokines” value in test [2] was “None of the small molecules (including 1, as well as the optimized, equipotent analogues 7e and 7f) showed any activity; also recorded: absence of induction of chemokines and cytokines”. Moreover, the “induction of cytokines and chemokines” value in the test with human whole blood is “None of the small molecules (including 1, as well as the optimized, equipotent analogues 7e and 7f) showed any activity”. For the same molecule, at human NOD2 (setting [3]), the EC50 was found to be 0.68 µM. Also, the EC50 at human NOD2 (setting [4]) stood at 0.684 µM.

`CCCCCCc1nc2ccccc2n1-c1csc(C(N)=O)c1` [Compound 7f, 4-(2-Hexyl-1H-benzo[d]imidazol-1-yl)thiophene-2-carboxamide]: in test [1], the “enhancement of NF-κB translocation response to TLR2 stimuli” value is listed as “absent”, the “enhancement of NF-κB translocation response to TLR4 stimuli” value is listed as “absent”, the “enhancement of NF-κB translocation response to TLR5 stimuli” value was “evident” and the “enhancement of NF-κB translocation response to TLR7 stimuli” value was “particularly pronounced”. Moreover, the “enhancement of NF-κB translocation response to TLR8 stimuli” value in test [1] is on record as “particularly pronounced”. In test [2], the “induction of chemokines and cytokines” value is “None of the small molecules (including 1, as well as the optimized, equipotent analogues 7e and 7f) showed any activity; also recorded: essentially identical to that of 7e”. Also, the “induction of cytokines and chemokines” value with human whole blood was “None of the small molecules (including 1, as well as the optimized, equipotent analogues 7e and 7f) showed any activity”. Moreover, at human NOD2 (setting [3]), the concentration giving a half-maximal response (EC50) worked out at 0.66 µM. Besides, on human NOD2 (setting [4]), the EC50 was determined as 0.664 µM.
